Source: patent publication US11000033B2, “Ketone or oxime compound, and herbicide” (NISSAN CHEMICAL CORPORATION, priority 2014, dated 2021)

Columns and labels:
Type in all cases: in vivo
Cyperus difformis = test: Test Example 3: herbicidal effect by foliage application, Wagner pot (symbol E); conditions: application herbicide amount 320 g/ha
Outline: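 Foliar spray of a water-diluted emulsion at a predetermined herbicide amount, applied to 14-day-old plants. Seedlings were raised in flooded alluvial soil (0.1–0.5 cm water) at 25–30 °C in a greenhouse. Injury was rated after 3 weeks against fixed criteria.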

Alopecurus myosuroides = test: Test Example 5: herbicidal effect by foliage application, plastic box (symbol J); conditions: 320 g/ha, 3 weeks after application
Outline: (§1)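 Visual herbicidal score, taken three weeks post-application, of seedlings sprayed on the foliage with water-diluted emulsion at a predetermined amount; plants were 14 days old, greenhouse-raised at 25° C. to 30° C.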

corn [1] = test: Test Example 4: effect on crop by soil treatment (symbol c); conditions: application herbicide amount 320 g/ha
Outline: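 Greenhouse culture at 25° C. to 30° C. followed sowing of seed in spots on sterilized diluvial soil with a soil cover close to 1.5 cm thick.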

Apera spica-venti = test: Test Example 4: herbicidal effect by soil treatment (symbol L); conditions: application herbicide amount 320 g/ha
Outline: (§2)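 Seeds were sown in sterilized diluvial soil, covered with about 1.5 cm of soil, and the soil surface was sprayed with a water-diluted emulsion of the compound at a predetermined rate. Plants grew in a greenhouse at 25° C. to 30° C.; effects were scored visually 3 weeks after application.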

corn [2] = test: Test Example 5: effect on crop by foliage application, plastic box (symbol c); conditions: 320 g/ha, 3 weeks after application
Outline: (§3)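 Greenhouse test at 25° C. to 30° C. Seeds of crops and weeds were spot-sown in boxes of sterilized diluvial soil under roughly 1.5 cm soil cover, then grown for foliage treatment.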

[3] = test system: Echinochloa crus-galli var. crus-galli; test: Test Example 4: herbicidal effect by soil treatment (symbol H); conditions: application herbicide amount 320 g/ha
Outline: as §2

beet = test: Test Example 5: effect on crop by foliage application, plastic box (symbol f); conditions: 320 g/ha, 3 weeks after application
Outline: as §3

transplanted rice plant = test: Test Example 1: effect on crop, application before weed generation in submerged conditions (symbol a); conditions: application herbicide amount 320 g/ha
Outline: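 Alluvial soil pots flooded to 4 cm water, sown with Echinochloa oryzacola, Scirpus juncoides and Monochoria vaginalis, then transplanted with 2.5 leaf stage rice seedlings; pre-emergence application. Greenhouse 25° C. to 30° C.; scored 0–5 by herbicidal ratio 3 weeks after application.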

Scirpus juncoides = test: Test Example 2: herbicidal activity, application during weed generation in submerged conditions (symbol B); conditions: Table 23; application herbicide amount 320 g/ha; grade 0-5 by criteria of Test Example 1
Outline: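 Scoring of herbicidal effect took place 3 weeks after treatment, using the criteria of the earlier test. Treatment was water-surface application of diluted emulsifiable compound at a set dose. Plants were at one- to two-leaf stage in submerged alluvial soil (4 cm depth), greenhouse 25-30° C.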

soybean = test: Test Example 5: effect on crop by foliage application, plastic box (symbol d); conditions: 320 g/ha, 3 weeks after application
Outline: as §3

[4] = test system: Echinochloa crus-galli var. crus-galli; test: Test Example 5: herbicidal effect by foliage application, plastic box (symbol H); conditions: 320 g/ha, 3 weeks after application
Outline: as §1

rice = test: Test Example 4: effect on crop by soil treatment (symbol b); conditions: application herbicide amount 320 g/ha
Outline: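 Seeds were sown in spots on sterilized diluvial soil in a plastic box and covered with about 1.5 cm of soil. Plants were then grown in a greenhouse at 25° C. to 30° C.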

Abutilon theophrasti = test: Test Example 4: herbicidal effect by soil treatment (symbol M); conditions: application herbicide amount 320 g/ha
Outline: as §2

| SMILES | herbicidal effect on E, grade 0-5 (Cyperus difformis) | J: Alopecurus myosuroides, herbicidal effect grade (Alopecurus myosuroides) | c: corn, effect on crop grade (corn [1]) | L: Apera spica-venti, herbicidal effect grade (Apera spica-venti) | c: corn, effect on crop grade (corn [2]) | H: Echinochloa crus-galli var. crus-galli, herbicidal effect grade [3] | f: beet, effect on crop grade (beet) | Effect grade on crop, a: transplanted rice plant (transplanted rice plant) | Herbicidal effect grade, B: Scirpus juncoides (Scirpus juncoides) | d: soybean, effect on crop grade (soybean) | H: Echinochloa crus-galli var. crus-galli, herbicidal effect grade [4] | b: directly sowed rice plant, effect on crop grade (rice) | M: Abutilon theophrasti, herbicidal effect grade (Abutilon theophrasti) | c (corn) effect on crop grade (corn [1]) | L (Apera spica-venti) herbicidal effect grade (Apera spica-venti) | H (Echinochloa crus-galli var. crus-galli) herbicidal effect grade [3] | b (directly sowed rice plant) effect on crop grade (rice) | M (Abutilon theophrasti) herbicidal effect grade (Abutilon theophrasti) |
| --- | --- | --- | --- | --- | --- | --- | --- | --- | --- | --- | --- | --- | --- | --- | --- | --- | --- | --- |
| CCC(=O)CCC1CC(OC)=C(c2c(C)cc(C)cc2C)C1=O (stereo not drawn) [5-002] | 0 (Herbicidal ratio of 5% or lower (almost no effect)) | 0 (Herbicidal ratio of 5% or lower (almost no effect)) | 0 (Herbicidal ratio of 5% or lower (almost no effect)) | 0 (Herbicidal ratio of 5% or lower (almost no effect)) | 0 (Herbicidal ratio of 5% or lower (almost no effect)) | 0 (Herbicidal ratio of 5% or lower (almost no effect)) | 0 (Herbicidal ratio of 5% or lower (almost no effect)) | 0 (Herbicidal ratio of 5% or lower (almost no effect)) | 0 (Herbicidal ratio of 5% or lower (almost no effect)) | 0 (Herbicidal ratio of 5% or lower (almost no effect)) | 0 (Herbicidal ratio of 5% or lower (almost no effect)) | 0 (Herbicidal ratio of 5% or lower (almost no effect)) | 0 (Herbicidal ratio of 5% or lower (almost no effect)) | – | – | – | – | – |
| CON=C(C)CC1CC(O)=C(c2c(C)cc(-c3ccc(Cl)cc3)cc2C)C1=O (mixture of isomers) [6-029] | 5 (Herbicidal ratio of 90% or more (almost completely withered)) | 5 (Herbicidal ratio of 90% or more (almost completely withered)) | 2 (Herbicidal ratio of 20% or higher and lower than 40%) | 5 (Herbicidal ratio of 90% or more (almost completely withered)) | 5 (Herbicidal ratio of 90% or more (almost completely withered)) | 5 (Herbicidal ratio of 90% or more (almost completely withered)) | 0 (Herbicidal ratio of 5% or lower (almost no effect)) | 5 (Herbicidal ratio of 90% or more (almost completely withered)) | 3 (Herbicidal ratio of 40% or higher and lower than 70%) | 0 (Herbicidal ratio of 5% or lower (almost no effect)) | 5 (Herbicidal ratio of 90% or more (almost completely withered)) | 5 (Herbicidal ratio of 90% or more (almost completely withered)) | 0 (Herbicidal ratio of 5% or lower (almost no effect)) | – | – | – | – | – |
| CCCC(=O)C(C(=O)OC)C1CC(O)=C(c2c(C)cc(C)cc2C)C1=O (stereo not drawn) [2-020] | 0 (Herbicidal ratio of 5% or lower (almost no effect)) | 4 (Herbicidal ratio of 70% or higher and lower than 90%) | 3 (Herbicidal ratio of 40% or higher and lower than 70%) | 0 (Herbicidal ratio of 5% or lower (almost no effect)) | 1 (Herbicidal ratio of 5% or higher and lower than 20%) | 4 (Herbicidal ratio of 70% or higher and lower than 90%) | 0 (Herbicidal ratio of 5% or lower (almost no effect)) | 3 (Herbicidal ratio of 40% or higher and lower than 70%) | 0 (Herbicidal ratio of 5% or lower (almost no effect)) | 0 (Herbicidal ratio of 5% or lower (almost no effect)) | 4 (Herbicidal ratio of 70% or higher and lower than 90%) | 5 (Herbicidal ratio of 90% or more (almost completely withered)) | 0 (Herbicidal ratio of 5% or lower (almost no effect)) | – | – | – | – | – |
| CCC(CCC1CC(O)=C(c2c(C)cc(C)cc2C)C1=O)=NOC (mixture of isomers) [4-001] | 0 (Herbicidal ratio of 5% or lower (almost no effect)) | 5 (Herbicidal ratio of 90% or more (almost completely withered)) | 0 (Herbicidal ratio of 5% or lower (almost no effect)) | 5 (Herbicidal ratio of 90% or more (almost completely withered)) | 1 (Herbicidal ratio of 5% or higher and lower than 20%) | 0 (Herbicidal ratio of 5% or lower (almost no effect)) | 0 (Herbicidal ratio of 5% or lower (almost no effect)) | 0 (Herbicidal ratio of 5% or lower (almost no effect)) | 0 (Herbicidal ratio of 5% or lower (almost no effect)) | 0 (Herbicidal ratio of 5% or lower (almost no effect)) | 2 (Herbicidal ratio of 20% or higher and lower than 40%) | 5 (Herbicidal ratio of 90% or more (almost completely withered)) | 0 (Herbicidal ratio of 5% or lower (almost no effect)) | – | – | – | – | – |
| CON=C(C)CC1CC(OCCSC)=C(c2c(C)cc(C)cc2C)C1=O (stereo not drawn) [1-011] | 0 (Herbicidal ratio of 5% or lower (almost no effect)) | 4 (Herbicidal ratio of 70% or higher and lower than 90%) | – | – | 0 (Herbicidal ratio of 5% or lower (almost no effect)) | – | 0 (Herbicidal ratio of 5% or lower (almost no effect)) | 0 (Herbicidal ratio of 5% or lower (almost no effect)) | 0 (Herbicidal ratio of 5% or lower (almost no effect)) | 0 (Herbicidal ratio of 5% or lower (almost no effect)) | 0 (Herbicidal ratio of 5% or lower (almost no effect)) | – | – | 0 (Herbicidal ratio of 5% or lower (almost no effect)) | 0 (Herbicidal ratio of 5% or lower (almost no effect)) | 0 (Herbicidal ratio of 5% or lower (almost no effect)) | 0 (Herbicidal ratio of 5% or lower (almost no effect)) | 0 (Herbicidal ratio of 5% or lower (almost no effect)) |
| C#CCOC1=C(c2c(C)cc(C)cc2C)C(=O)C(CC(C)=NOC)C1 (stereo not drawn) [1-008] | 4 (Herbicidal ratio of 70% or higher and lower than 90%) | 5 (Herbicidal ratio of 90% or more (almost completely withered)) | – | – | 0 (Herbicidal ratio of 5% or lower (almost no effect)) | – | 0 (Herbicidal ratio of 5% or lower (almost no effect)) | 0 (Herbicidal ratio of 5% or lower (almost no effect)) | 2 (Herbicidal ratio of 20% or higher and lower than 40%) | 2 (Herbicidal ratio of 20% or higher and lower than 40%) | 4 (Herbicidal ratio of 70% or higher and lower than 90%) | – | – | 0 (Herbicidal ratio of 5% or lower (almost no effect)) | 5 (Herbicidal ratio of 90% or more (almost completely withered)) | 4 (Herbicidal ratio of 70% or higher and lower than 90%) | 3 (Herbicidal ratio of 40% or higher and lower than 70%) | 0 (Herbicidal ratio of 5% or lower (almost no effect)) |
